The source of these data is patent US20130273179A1, “SYSTEM AND METHOD FOR IMPROVING OUTCOME OF CEREBRAL ISCHEMIA” (ASTUCE, INC., priority 2012, published 2013).

In series [1] the test system is cerebral ischemia (carotid artery occlusion model). The experiment in a line: Carotid artery occlusion model, Speckle laser Doppler, intubated rodents. The series is classed as in vivo. The conditions noted are these: both during the carotid occlusion and following ligature release. How it is done: (§1) In intubated rodents, the inventors have shown that cerebral blood flow increases by 100% within 60 minutes of intranasal nitric oxide delivery.

The nature of series [2]: Tolerability of intranasal nitric oxide in awake humans (normal volunteers). The class given is in vivo, human. From the text: While nitric oxide may be given intranasally and without inhalation into the lungs to intubated, comatose individuals the tolerability of intranasal nitric oxide in awake humans has not previously been investigated. The inventors have tested the effect of nitric oxide in humans (normal volunteers) during intranasal delivery. […] Therefore it can easily be tolerated by awake, non-intubated patients.

The next series relates to cerebral perfusion. Put plainly: CT perfusion scanning before and after intranasal nitric oxide in intubated patients with focal cerebral ischemia. The class given is in vivo, human.
The next series has as its system cerebral blood flow. The experiment in a line: Cerebral blood flow by cortical laser Doppler during intranasal nitric oxide in intubated rodents. Conditions: intranasal non-inhaled delivery, within 60 minutes. The series is classed as in vivo. How it is done: as §1

For the compound `[N]=O` [nitric oxide], the “perfusion in the ischemic hemisphere” value in series [1] is given as “perfusion is improved in the ischemic hemisphere”. For the same compound, in series [2] (humans, high concentration, intra-nasally and without inhalation), the “tolerability of gas treatment” value was “tolerated at high concentration”. For the same compound, in series [2] (normal volunteers, concentrations up to 100 PPM), the “sensation during intranasal delivery” value is recorded as “does not elicit any sensation”. In the series with cerebral perfusion (Post Rx), the “Cerebral Blood Flow, Changes in ACA Watershed” value is “Normalization,” and the “Mean Transit Time, Changes in ACA Watershed” value is “Normalization”. In addition, the “Cerebral Blood Flow, Changes in ACA Watershed: increase in perfusion on L” value with cerebral perfusion (Post Rx vs Pre Rx, left (ischemic) hemisphere) amounted to 67% increase in. Also, the “Mean Transit Time, Right Hemisphere (normal)” value in the series with cerebral perfusion (Post Rx, one hour of intranasal non-inhaled nitric oxide (Pre Rx 6)) is 6.1 s. In addition, the “Mean Transit Time, Left Hemisphere (ischemic)” value with cerebral perfusion (Post Rx, one hour of intranasal non-inhaled nitric oxide (Pre Rx 10)) was 6.0 s. In addition, the “Cerebral Blood Flow, Left Hemisphere (ischemic)” value in the series on cerebral perfusion (Post Rx, one hour of intranasal non-inhaled nitric oxide (Pre Rx 31)) worked out at 52. For the same compound, the “Cerebral Blood Flow, Right Hemisphere (normal)” value in the series with cerebral perfusion (Post Rx, one hour of intranasal non-inhaled nitric oxide (Pre Rx 49)) worked out at 45. The “cerebral perfusion during treatment (CT perfusion scanning)” value in the series with cerebral perfusion (intubated patients with cerebral ischemia) is “augmentation of cerebral perfusion and normalization of regional perfusion abnormalities”. Besides, in the series with cerebral blood flow, the “cerebral blood flow increase” value came to 100%.
